In patent US20260209152A1, “Substituted Hydroxystilbene Compounds and Derivatives, Synthesis and Uses Thereof” (Kynan Duke IP, LLC, priority 2019, published 2026):
Read-outs that look alike come from different tables or passages of the source.

How the values were obtained:
[1] = system: Pancreatic MIA PaCa-2; experiment: CellTiter Glo cell viability assay; assay type: cell-based, human; settings: Homo sapiens, read-out: IC50
Experimental: (§1) 1.7*10^3 cells/well were seeded in quadruplicates in 96-well plate after plating. Drugs were added at 5 μM and 2-fold dilutions over 18 concentrations (0.000038146-5 M concentration range) to generate a dose-response curve. Cell growth was assessed on day 1, 3 and 5 after drug treatments using the CellTiter Glo Luminescence Cell Viability Assay (Promega) according to manufacturer's protocol. Thermo Scientific Varioskan LUX Multimode Microplate instrument was used for plate reading. Data are expressed as mean luminescence (arbitrary units) ±S.D.
(§2) Cell Viability Assays were employed to determine the concentration of Compound 1 (KYN-001) and analogues where the response is reduced by half. For each treatment of cancer cells, 1, 2, 5, 10 and 20 μM solutions of compounds were applied. GraphPad Prism 7 software was used to fit dose response curves. Relative Luminescence Units were plotted against the log values of the doses used and the nonlinear regression model was used for data analysis.
(§3) The protocol for cell proliferation was optimized for Compound 8 (KYN-119) to enable a more accurate assessment of its low IC50 value. In this protocol, 18 dosages (2 fold dilutions ranging from 0.000038146 to 5 μM) were applied to cells seeded in 96-well plates, and Luminescence was measured after 1, 3 and 5 days upon treatments.
Day 3 upon treatment of MIA PaCa_2 pancreatic cancer cells, 24 h after plating (11 dilutions), as assessed by CellTiter Glow Assay.

[2] = system: Cancer cells including pancreatic, bladder, kidney, colon, breast, lung, liver and osteosarcomas; experiment: CellTiter Glo cell viability assay, panel of cancer cell lines; assay type: cell-based, human; settings: SAR discussion based on IC50 values in Tables 1 to 5; compared with 1 [KYN-001]
Experimental: Compounds 1 to 15 were evaluated and their effect on cancer growth examined in cell viability assays on multiple cancer types (Tables 1 to 5). Cancer cells including pancreatic, bladder, kidney, colon, breast, lung, liver and osteosarcomas obtained from ATCC (American Type Culture Collection) were authenticated before use by Short Tandem Repeat genomic analysis (Reid Y, Storts D, Riss T and Minor L. Authentication of Human Cell Lines by STR DNA Profiling Analysis. 2013 May 1. In: Markossian S, Sittampalam G S, Grossman A, et al., editors. Assay Guidance Manual. Bethesda (MD): Eli Lilly & Company and the National Center for Advancing Translational Sciences; 2004.). Experimental protocol for each cancer cell line was verified and optimized according to literature reports before use (Tables 1 to 3).
as §1, §2, §3

[3] = Stability in solution (LCMS observation); assay type: physicochemical; settings: standing in methanol for 16 hours; acetonitrile in water chromatography
Experimental: NOTE: In a trial run, compound 15-9 (50 mg) was converted to compound 15 using conditions as described above.

[4] = system: Kidney A-498; experiment: CellTiter Glo cell viability assay; assay type: cell-based, human; settings: Homo sapiens, A498, Table 5A: 11 dilutions 3-0.00001 μM; single experiments Exp E-K; read-out: IC50
Experimental: as §1, with “Drugs were added at 5 μM and 2-fold dilutions over 18 concentrations (0.000038146-5 M concentration range) to generate a dose-response curve.” left out
as §2, with “For each treatment of cancer cells, 1, 2, 5, 10 and 20 μM solutions of compounds were applied.” left out
The protocol for cell proliferation was optimized for Compound 8 (KYN-119) to enable a more accurate assessment of its low IC50 value. […]

[5] = system: Brain U-87 MG HTB-14; experiment: CellTiter Glo cell viability assay; assay type: cell-based; settings: Homo sapiens, Table 5B: 11 dilutions 3-0.00001 μM, Exp L-N
Experimental: as §1, with “Drugs were added at 5 μM and 2-fold dilutions over 18 concentrations (0.000038146-5 M concentration range) to generate a dose-response curve.” left out
as §2, with “For each treatment of cancer cells, 1, 2, 5, 10 and 20 μM solutions of compounds were applied.” left out

[6] = system: GBM patient sample BNB04; experiment: Ex vivo GBM 3D spheroid drug response (CellTiter-Glo 3D); assay type: cell-based, human; set-up: key to TMZ Response: NR: Non-responder; MR: Moderate responder; Responder; settings: 3D spheroids
Text: (§4) This project involves an ex vivo drug response screen for 3 ROKiT Pharma test agents and Temozolomide in 3 previously dissociated and cryopreserved GBM samples.
(§5) • 2.1 Three previously processed GBM patient samples were chosen to be used in this study.

[7] = system: GBM patient sample BNB18; experiment: as above; assay type: cell-based, human; set-up: key to TMZ Response: NR: Non-responder; MR: Moderate responder; Responder; settings: 3D spheroids
Text: as §4, §5

[8] = system: GBM patient sample BNA99; experiment: as above; assay type: cell-based, human; set-up: key to TMZ Response: NR: Non-responder; MR: Moderate responder; Responder; settings: 3D spheroids
Text: as §4, §5

[9] = system: IL-17A secretion from human PBMC stimulated with antiCD3/antiCD28-coated beads; settings: assay description, cited from earlier work
[10] = MIA PaCa-2, Table 5B: MIA PaCa-2 CRL-1420, 11 dilutions 3-0.00001 μM, Exp L-N

IC50 [1, 10] [nM]	IC50 [5] [nM]	SMILES	Cancer cell viability inhibition, statement in words [2]	further results
> 3000	~3000	CCOc1cc(O)cc(/C=C/c2ccc(N(O)C(C)=O)c(OC)c2)c1CC=C(C)C [Compound 39, (E)-N-(4-(3-ethoxy-5-hydroxy-2-(3-methylbut-2-en-1-yl)styryl)-2-methoxyphenyl)-N-hydroxyacetamide]	almost complete loss of anticancer activity	–
486	555	COc1cc(/C=C/c2cc(O)cc(NC=O)c2CC=C(C)C)ccc1O [Compound 48, (E)-N-(5-Hydroxy-3-(4-hydroxy-3-methoxystyryl)-2-(3-methylbut-2-en-1-yl)phenyl)formamide]	anticancer activities comparable to 1	–
531	1400	COc1cc(/C=C/c2cc(O)cc(NC(C)=O)c2CC=C(C)C)ccc1O [Compound 49, (E)-N-(5-hydroxy-3-(4-hydroxy-3-methoxystyryl)-2-(3-methylbut-2-en-1-yl)phenyl)acetamide]	anticancer activities comparable to 1	–

Continued, compound first:

SMILES	IC50 [1, 10] [nM]	IC50 [5] [nM]	Cancer cell viability inhibition, statement in words [2]	further results
CNc1cc(/C=C/c2cc(O)cc(OC)c2CC=C(C)C)ccc1O [Compound 15, (E)-3-(4-Hydroxy-3-(methylamino)styryl)-5-methoxy-4-(3-methylbut-2-en-1-yl)phenol]	–	–	inactive or weakly active	IC50 ([1]; MIA PaCa-2, Table 5A: 11 dilutions 3-0.00001 μM, single experiments Exp E-K): > 3000 nM; Stability in solution [3]: might be unstable in solution; IC50 [4]: > 3000 nM
CCOc1cc(O)cc(/C=C/c2ccc3[nH]c(=O)n(C)c3c2)c1CC=C(C)C [Compound 51, (E)-6-(3-Ethoxy-5-hydroxy-2-(3-methylbut-2-en-1-yl)styryl)-1-methyl-1,3-dihydro-2H-benzo[d]imidazol-2-one]	–	~3000	no significant activity	–
Cn1nnc2c(C(N)=O)ncn2c1=O [TMZ, Temozolomide, reference compound]	–	–	–	TMZ Response [6]: MR; TMZ Response [7]: R; TMZ Response [8]: NR
C=CC[C@@H]1/C=C(\C)C[C@H](C)C[C@H](OC)[C@H]2O[C@@](O)(C(=O)C(=O)N3CCCC[C@H]3C(=O)O[C@H](/C(C)=C/[C@@H]3CC[C@@H](O)[C@H](OC)C3)[C@H](C)[C@@H](O)CC1=O)[C@H](C)C[C@@H]2OC [Tacrolimus]	–	–	–	Emax (plateau of the fitted curve), IL-17A release (reference compound) [9]: approximately 90%; EC50 ([9]; read-out: EC50, IL-17A release (reference compound)): ~0.34 nM
